Results: US10287255B2, “Compounds as histone deacetylase 6 inhibitors and pharmaceutical compositions comprising the same” (CHONG KUN DANG PHARMACEUTICAL CORP., priority 2014, dated 2019)

How the values were obtained:
[1] = molecular target: T1, human recombinant HDAC1 (Homo sapiens, UniProt Q13547); test: HDAC1 enzyme activity inhibition assay (in vitro, fluorimetric); assay type: biochemical; conditions: human recombinant HDAC1, fluorimetric kit, 30° C. 60 minutes
T1 construct: purchased Enzo Life Science BML-SE456
T1 sequence (Q13547 whole entry): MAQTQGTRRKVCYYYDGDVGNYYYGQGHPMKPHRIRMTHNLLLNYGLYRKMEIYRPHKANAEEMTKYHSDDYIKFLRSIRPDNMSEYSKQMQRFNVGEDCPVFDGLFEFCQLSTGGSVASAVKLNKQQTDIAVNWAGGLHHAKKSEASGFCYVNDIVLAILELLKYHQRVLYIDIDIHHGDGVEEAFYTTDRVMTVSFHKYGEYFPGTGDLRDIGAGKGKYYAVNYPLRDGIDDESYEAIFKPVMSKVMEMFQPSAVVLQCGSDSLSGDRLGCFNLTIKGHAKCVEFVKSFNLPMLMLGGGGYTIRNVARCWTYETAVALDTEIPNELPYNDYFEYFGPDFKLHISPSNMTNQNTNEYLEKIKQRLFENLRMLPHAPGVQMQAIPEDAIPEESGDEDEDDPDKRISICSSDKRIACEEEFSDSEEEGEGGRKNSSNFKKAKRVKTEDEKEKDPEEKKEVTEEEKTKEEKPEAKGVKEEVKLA
Method in brief: (§1)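 Human recombinant enzyme (0.3 μg for HDAC1) reacted with 10 μM Fluor de Lys-SIRT1 substrate and 5-fold compound dilutions at 30 °C for 60 min, then developer for 30 min. Fluorescence read at Ex 360/Em 460; IC50 calculated. HDAC6 run by the same protocol.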

[2] = molecular target: T2, human recombinant HDAC6 (Homo sapiens, UniProt Q9UBN7); test: HDAC6 enzyme activity inhibition assay (in vitro, fluorimetric); assay type: biochemical; conditions: for HDAC6 selectivity (fold): HDAC6 selectivity over HDAC1; for IC50: human recombinant HDAC6, fluorimetric kit, same protocol as HDAC1
T2 construct: purchased Calbiochem 382180
T2 sequence (Q9UBN7 1-1215): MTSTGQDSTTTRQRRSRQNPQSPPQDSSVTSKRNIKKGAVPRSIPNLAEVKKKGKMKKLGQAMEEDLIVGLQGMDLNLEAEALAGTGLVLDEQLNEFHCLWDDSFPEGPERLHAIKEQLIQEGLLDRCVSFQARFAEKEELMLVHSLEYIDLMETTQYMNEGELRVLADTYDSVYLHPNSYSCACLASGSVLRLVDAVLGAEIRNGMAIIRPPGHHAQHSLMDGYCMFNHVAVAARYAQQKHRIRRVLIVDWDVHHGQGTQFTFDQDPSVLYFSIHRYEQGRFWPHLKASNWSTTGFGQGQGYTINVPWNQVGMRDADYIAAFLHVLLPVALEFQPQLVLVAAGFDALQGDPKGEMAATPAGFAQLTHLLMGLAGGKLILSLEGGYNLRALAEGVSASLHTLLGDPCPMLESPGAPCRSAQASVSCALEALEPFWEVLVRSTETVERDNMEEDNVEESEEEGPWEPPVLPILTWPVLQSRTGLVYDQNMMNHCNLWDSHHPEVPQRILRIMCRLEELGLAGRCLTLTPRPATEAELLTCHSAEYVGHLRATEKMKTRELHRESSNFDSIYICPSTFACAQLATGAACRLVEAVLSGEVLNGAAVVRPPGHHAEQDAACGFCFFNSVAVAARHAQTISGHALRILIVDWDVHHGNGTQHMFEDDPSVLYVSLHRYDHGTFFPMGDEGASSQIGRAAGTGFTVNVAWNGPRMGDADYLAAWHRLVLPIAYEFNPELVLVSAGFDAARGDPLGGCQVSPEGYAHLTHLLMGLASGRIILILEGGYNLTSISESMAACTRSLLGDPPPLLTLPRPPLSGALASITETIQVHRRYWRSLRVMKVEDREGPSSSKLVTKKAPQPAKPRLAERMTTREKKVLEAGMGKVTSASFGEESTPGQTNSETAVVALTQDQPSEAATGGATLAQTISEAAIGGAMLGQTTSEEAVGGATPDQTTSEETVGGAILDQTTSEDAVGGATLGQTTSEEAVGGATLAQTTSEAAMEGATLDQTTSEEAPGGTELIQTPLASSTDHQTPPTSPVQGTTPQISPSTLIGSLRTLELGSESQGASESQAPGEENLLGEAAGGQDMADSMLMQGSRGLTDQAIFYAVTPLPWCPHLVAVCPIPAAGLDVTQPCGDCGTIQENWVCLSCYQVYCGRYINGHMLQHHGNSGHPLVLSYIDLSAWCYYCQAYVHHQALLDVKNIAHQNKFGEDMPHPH
Method in brief: as §1

SMILES | IC50 [1] [nM] | HDAC6 selectivity (fold) [2] [fold] | IC50 [2] [nM]
C[C@@H]1CN(Cc2ccc(C(=O)NO)cc2)C[C@H](C)N1C(=O)c1ccncc1 [Compound 405, N-hydroxy-4-(((3R,5S)-4-isonicotinoyl-3,5-dimethylpiperazin-1-yl)methyl)benzamide] | 4300 | 17 | 248
C[C@@H]1CN(Cc2cccc(-n3cccc3)c2)C[C@H](C)N1Cc1ccc(C(=O)NO)cc1 [Compound 256, 4-(((2S,6R)-4-(3-(1H-pyrrol-1-yl)benzyl)-2,6-dimethylpiperazin-1-yl)methyl)-N-hydroxybenzamide] | 4600 | 15 | 303
C[C@@H]1CN(Cc2ccc(C(=O)NO)cc2)C[C@H](C)N1C(=O)c1cccc(-c2ccoc2)c1 [Compound 243, 4-(((3R,5S)-4-(3-(furan-3-yl)benzoyl)-3,5-dimethylpiperazin-1-yl)methyl)-N-hydroxybenzamide] | 3000 | 40 | 74
C[C@@H]1CN(C(=O)c2cccc(-c3ccoc3)c2)C[C@H](C)N1Cc1ccc(C(=O)NO)cc1 [Compound 258, 4-(((2S,6R)-4-(3-(furan-3-yl)benzoyl)-2,6-dimethylpiperazin-1-yl)methyl)-N-hydroxybenzamide] | 1700 | 7 | 258
C[C@@H]1CN(Cc2ccc(C(=O)NO)cc2)C[C@H](C)N1Cc1cocn1 [Compound 354, 4-(((3R,5S)-3,5-dimethyl-4-(oxazol-4-ylmethyl)piperazin-1-yl)methyl)-N-hydroxybenzamide] | > 10000 | >2000 | 5
C[C@@H]1CN(Cc2ccc(C(=O)NO)cc2)C[C@H](C)N1C(=O)Oc1ccccc1 [Compound 177, phenyl(2S,6R)-4-(4-(hydroxycarbamoyl)benzyl)-2,6-dimethylpiperazine-1-carboxylate] | 5800 | 186 | 31
CC(C)=CCN1[C@H](C)CN(Cc2ccc(C(=O)NO)cc2)C[C@@H]1C [Compound 272, 4-(((3R,5S)-3,5-dimethyl-4-(3-methylbut-2-en-1-yl)piperazin-1-yl)methyl)-N-hydroxybenzamide] | 12200 | 67 | 182
C[C@@H]1CN(C(=O)c2cccc(-c3ccco3)c2)C[C@H](C)N1Cc1ccc(C(=O)NO)cc1 [Compound 257, 4-(((2S,6R)-4-(3-(furan-2-yl)benzoyl)-2,6-dimethylpiperazin-1-yl)methyl)-N-hydroxybenzamide] | 1600 | 6 | 255
CCCC(=O)N1[C@H](C)CN(Cc2ccc(C(=O)NO)cc2)C[C@@H]1C [Compound 294, 4-(((3R,5S)-4-butyryl-3,5-dimethylpiperazin-1-yl)methyl)-N-hydroxybenzamide] | 8200 | 37 | 220
C[C@@H]1CN(Cc2cc(F)c(F)cc2F)C[C@H](C)N1Cc1ccc(C(=O)NO)cc1 [Compound 215, 4-(((2S,6R)-2,6-dimethyl-4-(2,4,5-trifluorobenzyl)piperazin-1-yl)methyl)-N-hydroxybenzamide] | > 10000 | 2 | 523
C[C@@H]1CN(Cc2ccc(C(=O)NO)cc2)C[C@H](C)N1Cc1ccccc1-c1ccoc1 [Compound 328, 4-(((3R,5S)-4-(2-(furan-3-yl)benzyl)-3,5-dimethylpiperazin-1-yl)methyl)-N-hydroxybenzamide] | 18700 | 183 | 102
CCCN1[C@H](C)CN(Cc2ccc(C(=O)NO)cc2)C[C@@H]1C [Compound 148, 4-(((3R,5S)-3,5-dimethyl-4-propylpiperazin-1-yl)methyl)-N-hydroxybenzamide] | 15400 | 132 | 117
C[C@@H]1CN(Cc2ccc(C(=O)NO)cc2)C[C@H](C)N1C(=O)Cc1cccc(C(F)(F)F)c1 [Compound 223, 4-(((3R,5S)-3,5-dimethyl-4-(2-(3-(trifluoromethyl)phenyl)acetyl)piperazin-1-yl)methyl)-N-hydroxybenzamide] | 900 | 8 | 118
C[C@@H]1CN(Cc2ccc(C(=O)NO)cc2)C[C@H](C)N1CCCC(F)(F)F [Compound 204, 4-(((3R,5S)-3,5-dimethyl-4-(4,4,4-trifluorobutyl)piperazin-1-yl)methyl)-N-hydroxybenzamide] | > 10000 | >12 | 807
Cc1ccccc1NC(=O)N1C[C@@H](C)N(Cc2ccc(C(=O)NO)cc2)[C@@H](C)C1 [Compound 166, (3R,5S)-4-(4-(hydroxycarbamoyl)benzyl)-3,5-dimethyl-N-o-tolylpiperazine-1-carboxamide] | 4300 | 10 | 452
C[C@@H]1CN(C(=O)c2ccccc2C2=CCOCC2)C[C@H](C)N1Cc1ccc(C(=O)NO)cc1 [Compound 278, 4-(((2S,6R)-4-(2-(3,6-dihydro-2H-pyran-4-yl)benzoyl)-2,6-dimethylpiperazin-1-yl)methyl)-N-hydroxybenzamide] | 14400 | 16 | 911

The remaining lines, values ahead:

IC50 [1] [nM] | HDAC6 selectivity (fold) [2] [fold] | IC50 [2] [nM] | SMILES
9100 | 140 | 65 | C[C@@H]1CN(Cc2ccc(C(=O)NO)cc2)C[C@H](C)N1Cc1cccc(CN2CCN(S(C)(=O)=O)CC2)c1 [Compound 452, 4-(((3R,5S)-3,5-dimethyl-4-(3-((4-(methylsulfonyl)piperazin-1-yl)methyl)benzyl)piperazin-1-yl)methyl)-N-hydroxybenzamide]
> 10000 | 36 | 1440 | C[C@@H]1CN(Cc2ccc3cc(C(=O)NO)[nH]c3c2)C[C@H](C)N1Cc1ccccc1 [Compound 573, 6-(((3R,5S)-4-benzyl-3,5-dimethylpiperazin-1-yl)methyl)-N-hydroxy-1H-indole-2-carboxamide]
7800 | 65 | 120 | CC(C)CCN1CCN(Cc2cccc(C(=O)N3[C@H](C)CN(Cc4ccc(C(=O)NO)cc4)C[C@@H]3C)c2)CC1 [Compound 442, N-hydroxy-4-(((3R,5S)-4-(3-((4-isopentylpiperazin-1-yl)methyl)benzoyl)-3,5-dimethylpiperazin-1-yl)methyl)benzamide]
1500 | 17 | 86 | CCN(CC)Cc1cccc(C(=O)N2[C@H](C)CN(Cc3ccc(C(=O)NO)cc3)C[C@@H]2C)c1 [Compound 425, 4-(((3R,5S)-4-(3-((diethylamino)methyl)benzoyl)-3,5-dimethylpiperazin-1-yl)methyl)-N-hydroxybenzamide]
4500 | 55 | 82 | CC(C)N1CCN(Cc2cccc(CN3[C@H](C)CN(Cc4ccc(C(=O)NO)cc4)C[C@@H]3C)c2)CC1 [Compound 430, N-hydroxy-4-(((3R,5S)-4-(3-((4-isopropylpiperazin-1-yl)methyl)benzyl)-3,5-dimethylpiperazin-1-yl)methyl)benzamide]
17100 | 166 | 103 | C[C@@H]1CN(Cc2ccc(C(=O)NO)cc2)C[C@H](C)N1Cc1ccccc1C1=CCN(CC(F)(F)F)CC1 [Compound 483, 4-(((3R,5S)-3,5-dimethyl-4-(2-(1-(2,2,2,2-trifluoroethyl)-1,2,3,6-tetrahydropyridin-4-yl)benzyl)piperazin-1-yl)methyl)-N-hydroxybenzamide]
2700 | 66 | 40 | C[C@@H]1CN(C(=O)c2ccc(CC(=O)NO)cc2)C[C@H](C)N1Cc1ccccc1 [Compound 823, 2-(4-((3R,5S)-4-benzyl-3,5-dimethylpiperazine-1-carbonyl)phenyl)-N-hydroxyacetamide]
